Measured values reported in article PMC9531372, “Metabolic profiling and pharmacokinetic studies of Baihu-Guizhi decoction in rats by UFLC-Q-TOF–MS/MS and UHPLC-Q-TRAP-MS/MS” (Chinese Medicine, 2022).

Experiment: Pharmacokinetics of five absorbed components in rat serum after single or multiple gavage of BHGZD (UHPLC-Q-TRAP-MS/MS)
Conditions: for AUC(0-inf) / AUC(0-t) / Cmax / MRT inf / MRT last / half-life / Tmax / CL / Vd: male, Lewis, rat, po
From the text: Male Lewis rats, weighing 200–240 g, were purchased from Beijing Charles River Experimental Animals Co. Ltd. (Beijing, China). […] Animal experiments were approved and supervised by the National Institutes of Health guide for the care and use of Laboratory animals. Every effort was made to minimize both the employed animal numbers as well as the potential discomfort of the animals throughout the study.
For single administration, rats were orally administrated with BHGZD powder at dose of 21.4 g/kg, which was equivalent to two-fold of clinical dose in human. […] For multiple administration, rats were intragastrically administered BHGZD (21.4 g/kg/day) once a day, for continuous 12 days. […] Serum was freshly prepared by centrifugation and stored at – 80 ℃ till analysis.
Quantification for five absorbed compounds of BHGZD in rat serum were achieved by using a Shimadzu ultra-high-performance liquid chromatography tandem ion trap quadrupole Q-TRAP 6500 plus mass spectrometry (UHPLC-Q-TRAP-MS/MS). Sample preparations were described above.
Chromatographic separation was carried out on a Poroshell 120 EC-C18 column (50 × 3.0 mm, 2.7 μm, Agilent, USA) with a flow rate 0.3 mL/min.
The optimized parameters for the mass spectrometer were set as follows: curtain gas, 35 psi; collision gas, medium; ionspray voltage, 4500 V; temperature, 550 °C; ion source gas 1 and 2, 55 psi. […] Data acquisition and analysis were achieved by OS-Q software (version 1.4.1.20719, AB Sciex, USA). Pharmacokinetic analysis was conducted by Drug and Statistic software (version 3.0, Shanghai, China).
The developed methodology was then applied for the in vivo pharmacokinetic evaluations of these five absorbed components. After single or multiple gavages of BHGZD, rat serum was collected at indicated time points, and the concentrations of five analyte were quantified accordingly.

[1] = serum, 21.4 g/kg, rat serum, BHGZD 21.4 g/kg oral gavage, single dose, n = 8, mean ± SEM

| SMILES | AUC(0-inf) (serum, 21.4 g/kg) [ng·h/mL] | AUC(0-t) (serum, 21.4 g/kg) [ng·h/mL] | Cmax (serum, 21.4 g/kg) [ng/mL] | MRT inf (serum, 21.4 g/kg) [h] | MRT last (serum, 21.4 g/kg) [h] | half-life (serum, 21.4 g/kg) [min] | Tmax [1] [h] | Tmax (serum, 21.4 g/kg/day, rat serum, BHGZD 21.4 g/kg/day gavage once a day for 12 days, multiple dose, sampled day 12, n = 8, mean ± SEM) [h] | pattern of absorption and elimination in serum (rat serum, single or multiple gavages of BHGZD) | Tmax (serum, 21.4 g/kg, rat serum after BHGZD gavage, regimen not given) [h] | AUC(0-inf) (in vivo, 21.4 g/kg) [ng·h/mL] | AUC(0-t) (in vivo, 21.4 g/kg) [ng·h/mL] | CL (in vivo, 21.4 g/kg) | Cmax (in vivo, 21.4 g/kg) [ng/mL] | MRT inf (in vivo, 21.4 g/kg) [h] | MRT last (in vivo, 21.4 g/kg) [h] | Vd (in vivo, 21.4 g/kg) | half-life (in vivo, 21.4 g/kg) [min] | Tmax (in vivo, 21.4 g/kg) [h] |
| --- | --- | --- | --- | --- | --- | --- | --- | --- | --- | --- | --- | --- | --- | --- | --- | --- | --- | --- | --- |
| C[C@H]1CC[C@@]2(OC1)O[C@H]1C[C@H]3[C@@H]4CC[C@@H]5C[C@@H](O[C@@H]6O[C@H](CO)[C@H](O)[C@H](O)[C@H]6O[C@@H]6O[C@H](CO)[C@@H](O)[C@H](O)[C@H]6O)CC[C@]5(C)[C@H]4CC[C@]3(C)[C@H]1[C@@H]2C [Timosaponin AIII] | 45.3 ± 13.9 | 35.6 ± 7.99 | 5.41 ± 1.23 | 9.92 ± 2.73 | 7.54 ± 1.15 | 299 ± 104 | 6.38 ± 1.69 | 4.62 ± 2.13 | dual-peak response with prolonged pattern of absorption and elimination |  |  |  |  |  |  |  |  |  |  |
| O=C(O)/C=C/c1ccccc1 [Cinnamic acid] | 307 ± 120 | 110 ± 127 | 53.3 ± 32.6 | 10.5 ± 12.5 | 3.66 ± 1.03 | 142 ± 61.8 | 0.37 ± 0.35 |  |  | ~0.3 |  |  |  |  |  |  |  |  |  |
| O=c1c2cc(O)c(O)cc2oc2cc(O)c([C@@H]3O[C@H](CO)[C@@H](O)[C@H](O)[C@H]3O)c(O)c12 [Mangiferin] |  |  |  |  |  |  |  |  |  |  | 298 ± 298 | 266 ± 306 | 228,709 ± 238,817 L/h/kg | 48.1 ± 52.7 | 6.72 ± 6.64 | 3.6 ± 0.75 | 1,049,685 ± 1,125,516 L/kg | 218 ± 289 | 2.56 ± 1.68 |
| CC1(C)[C@@H](O[C@H]2O[C@H](C(=O)O)[C@@H](O)[C@H](O)[C@H]2O[C@@H]2O[C@H](C(=O)O)[C@@H](O)[C@H](O)[C@H]2O)CC[C@]2(C)[C@H]3C(=O)C=C4[C@@H]5C[C@@](C)(C(=O)O)CC[C@]5(C)CC[C@@]4(C)[C@]3(C)CC[C@@H]12 [Glycyrrhizic acid] |  |  |  |  |  |  |  |  |  |  | 91.8 ± 44.2 | 67.3 ± 36.8 | 288,330 ± 150,321 L/h/kg | 15.6 ± 8.97 | 5.83 ± 1.42 | 5.06 ± 1.37 | 867,518 ± 160,982 L/kg | 179 ± 49.2 | 5.88 ± 2.85 |
